Laboratory results from patent publication US20250074901A1, “NOVEL HETEROARYL COMPOUNDS” (ICAGEN, LLC, priority 2021, published 2025).

Target: T1, Kv7.2 (Homo sapiens, UniProt O43526)
T1 construct: expressed in transfected cells
Assay: Activation of Kv7.2 (in vitro assay, concentration response curve)
Format: cell-based
Conditions: for Emax: Kv7.2 activation max %; for EC50: activation of Kv7.2
Procedure, shortened: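 EC50 is the half-maximal effective concentration, relative to the Emax observed for each compound in this in vitro assay. It was derived from concentration–response curves of the agonistic effect measured over a series of concentrations.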

Structure (SMILES)	Emax [%]	EC50 [µM]
O=C(NCc1ccnc(OCC(F)(F)F)c1)N[C@@H]1C[C@@H]2[C@H](C1)C2(F)F [Example 238, 1-[(1R,3s,5S)-6,6-difluoro-3-bicyclo[3.1.0]hexanyl]-3-[[2-(2,2,2-trifluoroethoxy)pyridin-4-yl]methyl]urea]	79	0.06
O=C(NCc1ccnc(OC(F)F)c1)N[C@H]1CC[C@H](F)C1 [Example 239, 1-[[2-(difluoromethoxy)pyridin-4-yl]methyl]-3-[(1S,3S)-3-fluorocyclopentyl]urea]	57	0.44
O=C(Nc1ccc(F)c(F)c1)NC(CO)c1ccnc(OC(F)F)c1 (centres unmarked) [Example 240, 1-[1-[2-(difluoromethoxy)pyridin-4-yl]-2-hydroxyethyl]-3-(3,4-difluorophenyl)urea]	55	0.3
O=C(NCc1ccnc(OC(F)F)c1)N[C@H](C1CCC1)C(F)(F)F [Example 241, 1-[(1R)-1-cyclobutyl-2,2,2-trifluoroethyl]-3-[[2-(difluoromethoxy)pyridin-4-yl]methyl]urea]	68	0.07
O=C(NCc1ccnc(OC(F)F)c1)N[C@@H](C1CCC1)C(F)(F)F [Example 242, 1-[(1S)-1-cyclobutyl-2,2,2-trifluoroethyl]-3-[[2-(difluoromethoxy)pyridin-4-yl]methyl]urea]	51	0.75
O=C(NCc1ccnc(OC(F)F)n1)N[C@H]1C[C@H](C(F)(F)F)C1 [Example 243, 1-[[2-(difluoromethoxy)pyrimidin-4-yl]methyl]-3-[(1r,3r)-3-(trifluoromethyl)cyclobutyl]urea]	42	0.76
O=C(NCc1ccnc(OC(F)F)c1)Nc1cc(F)ccc1F [Example 244, 1-[[2-(difluoromethoxy)pyridin-4-yl]methyl]-3-(2,5-difluorophenyl)urea]	50	0.25
O=C(NCc1ccnc(OCC(F)(F)F)c1)Nc1cc(F)ccc1F [Example 245, 1-(2,5-difluorophenyl)-3-[[2-(2,2,2-trifluoroethoxy)pyridin-4-yl]methyl]urea]	54	0.05
O=C(NCc1ccnc(OC(F)F)c1)NC1(C23CC(C2)C3)CC1 [Example 246, 1-[1-(1-bicyclo[1.1.1]pentanyl)cyclopropyl]-3-[[2-(difluoromethoxy)pyridin-4-yl]methyl]urea]	60	0.54
O=C(NCc1ccnc(OC(F)F)c1)Nc1cccc(F)c1F [Example 247, 1-[[2-(difluoromethoxy)pyridin-4-yl]methyl]-3-(2,3-difluorophenyl)urea]	53	0.09
O=C(NCc1ccnc(OCC(F)(F)F)c1)Nc1cccc(F)c1F [Example 248, 1-(2,3-difluorophenyl)-3-[[2-(2,2,2-trifluoroethoxy)pyridin-4-yl]methyl]urea]	62	0.14
O=C(NCc1ccnc(OCF)c1)Nc1ccc(F)c(F)c1 [Example 249, 1-(3,4-difluorophenyl)-3-[[2-(fluoromethoxy)pyridin-4-yl]methyl]urea]	43	0.26
O=C(NCc1ccnc(OC(F)F)c1)N[C@@H]1CCC[C@H](C(F)(F)F)C1 [Example 250, 1-[[2-(difluoromethoxy)pyridin-4-yl]methyl]-3-[(1R,3S)-3-(trifluoromethyl)cyclohexyl]urea]	75	0.12
[2H]C([2H])(NC(=O)NC12CCC(F)(CC1)CC2)c1ccnc(OC(F)F)c1 [Example 251, 1-[dideuterio-[2-(difluoromethoxy)pyridin-4-yl]methyl]-3-(4-fluoro-1-bicyclo[2.2.2]octanyl)urea]	60	0.13
O=C(NCc1ccnc(OC(F)F)c1)NCC(C(F)(F)F)C(F)(F)F [Example 252, 1-[[2-(difluoromethoxy)pyridin-4-yl]methyl]-3-[3,3,3-trifluoro-2-(trifluoromethyl)propyl]urea]	73	0.72
O=C(NCc1ccnc(OC(F)F)c1)NC(C1CC1)C1CC1 [Example 253, 1-(dicyclo-propylmethyl)-3-[[2-(difluoromethoxy)pyridin-4-yl]methyl]urea]	70	0.32
O=C(NCc1ccnc(OCC(F)(F)F)c1)NC1(C2CC(F)(F)C2)CC1 [Example 254, 1-[1-(3,3-difluorocyclobutyl)cyclopropyl]-3-[[2-(2,2,2-trifluoroethoxy)pyridin-4-yl]methyl]urea]	40	1.01
O=C(Nc1cc(F)cc(F)c1)NC(CO)c1ccnc(OCC(F)(F)F)c1 (centres unmarked) [Example 256, 1-(3,5-difluorophenyl)-3-[2-hydroxy-1-[2-(2,2,2-trifluoroethoxy)pyridin-4-yl]ethyl]urea]	84	0.03
O=C(NCc1ccnc(OCC(F)(F)F)c1)N[C@H](C1CC1)C(F)(F)F [Example 257, 1-[(1R)-1-cyclopropyl-2,2,2-trifluoroethyl]-3-[[2-(2,2,2-trifluoroethoxy)pyridin-4-yl]methyl]urea]	61	0.24

Structure (SMILES)	Emax [%]	EC50 [µM]
O=C(NCc1ccnc(OC(F)F)c1)NC1COC(C(F)(F)F)C1 (centres unmarked) [Example 258, 1-[[2-(difluoromethoxy)pyridin-4-yl]methyl]-3-[5-(trifluoromethyl)oxolan-3-yl]urea]	53	0.5
O=C(Nc1cccc(Cl)c1)NC(CO)c1ccnc(OCC(F)F)c1 (centres unmarked) [Example 259, 1-(3-chlorophenyl)-3-[1-[2-(2,2-difluoroethoxy)pyridin-4-yl]-2-hydroxyethyl]urea]	63	0.24
O=C(NCc1ccnc(SC(F)F)c1)N[C@H]1C[C@H](C(F)(F)F)C1 [Example 260, 1-[[2-(difluoro-methylsulfanyl)pyridin-4-yl]methyl]-3-[(1r,3r)-3-(trifluoromethyl)cyclobutyl]urea]	51	0.37
Cc1cc(NC(=O)NCc2ccnc(OC(F)F)c2)ccc1F [Example 261, 1-[[2-(difluoromethoxy)pyridin-4-yl]methyl]-3-(4-fluoro-3-methylphenyl)urea]	40	0.07
O=C(NCc1ccnc(OC(F)F)c1)Nc1cccc(OC(F)F)c1 [Example 262, 1-[3-(difluoromethoxy)phenyl]-3-[[2-(difluoromethoxy)pyridin-4-yl]methyl]urea]	65	3.51
O=C(NCc1ccnc(OC(F)F)c1)NC1CCC(OC(F)F)C1 (centres unmarked) [Example 264, 1-[3-(difluoromethoxy)cyclopentyl]-3-[[2-(difluoromethoxy)pyridin-4-yl]methyl]urea]	49	0.43
O=C(NCc1ccnc(OC(F)F)c1)N[C@H]1C[C@@H](OC(F)F)C1 [Example 265, 1-[(1s,3s)-3-(difluoromethoxy)cyclobutyl]-3-[[2-(difluoromethoxy)pyridin-4-yl]methyl]urea]	47	0.47
O=C(NCc1ccnc(OC(F)F)c1)N[C@H]1CC[C@H](OC(F)F)CC1 [Example 266, 1-[(1r,4r)-4-(difluoromethoxy)cyclohexyl]-3-[[2-(difluoromethoxy)pyridin-4-yl]methyl]urea]	49	0.3
O=C(NCc1ccnc(OC(F)F)c1)NC1CC(OC(F)(F)F)C1 (centres unmarked) [Example 267, 1-[[2-(difluoromethoxy)pyridin-4-yl]methyl]-3-[3-(trifluoromethoxy)cyclobutyl]urea]	51	0.29
CC(CNC(=O)NCc1ccnc(OC(F)F)c1)OC(F)F (centres unmarked) [Example 268, 1-[2-(difluoromethoxy)propyl]-3-[[2-(difluoromethoxy)pyridin-4-yl]methyl]urea]	39	1.88
O=C(NCc1ccnc(OCC(F)(F)F)c1)N[C@H]1C[C@@H](F)C1 [Example 269, 1-((1s,3s)-3-fluorocyclobutyl)-3-[[2-(2,2,2-trifluoroethoxy)pyridin-4-yl]methyl]urea]	46	0.35
O=C(Nc1cccc(Cl)c1F)NC(CO)c1ccnc(OC(F)F)c1 (centres unmarked) [Example 270, 1-(3-chloro-2-fluorophenyl)-3-[1-[2-(difluoromethoxy)pyridin-4-yl]-2-hydroxyethyl]urea]	65	0.17
O=C(NCc1ccnc(OC(F)F)c1)N[C@H]1[C@@H]2CC(F)(F)C[C@@H]21 [Example 271, 1-[[2-(difluoromethoxy)pyridin-4-yl]methyl]-3-[rac-(1R,5S,6R)-3,3-difluoro-6-bicyclo[3.1.0]hexanyl]urea]	42	0.34
O=C(NCc1ccnc(OC(F)F)c1)Nc1ccc(F)c(F)c1F [Example 272, 1-[[2-(difluoromethoxy)pyridin-4-yl]methyl]-3-(2,3,4-trifluorophenyl)urea]	44	0.91
O=C(NCc1ccnc(OC(F)F)c1)N[C@@H](CC(F)(F)F)C(F)(F)F [Example 273, 1-[[2-(difluoromethoxy)pyridin-4-yl]methyl]-3-[(2S)-1,1,1,4,4,4-hexafluorobutan-2-yl]urea]	48	0.89
O=C(NCc1ccnc(CC(F)(F)F)c1)Nc1ccc(F)c(F)c1 [Example 274, 1-(3,4-difluorophenyl)-3-[[2-(2,2,2-trifluoroethyl)pyridin-4-yl]methyl]urea]	48	0.36
O=C(NCc1ccnc(CC(F)(F)F)c1)Nc1cccc(Cl)c1 [Example 275, 1-(3-chlorophenyl)-3-[[2-(2,2,2-trifluoroethyl)pyridin-4-yl]methyl]urea]	59	0.55
O=C(NCc1cc(OC(F)F)ncc1F)N[C@H]1C[C@H](C(F)(F)F)C1 [Example 277, 1-[[2-(difluoromethoxy)-5-fluoropyridin-4-yl]methyl]-3-[(1r,3r)-3-(trifluoromethyl)cyclobutyl]urea]	58	0.33
